Among the data in PubChem BioAssay (NCI) are TGI and GI50 values, retold here.

Test systems include 786-0 renal; A498 renal; HOP-62 NSCLC; M14 melanoma; MALME-3M melanoma; MOLT-4 leukemia; OVCAR-5 ovarian; RPMI-8226 leukemia; SF-295 CNS; SK-OV-3 ovarian.
What all share (assay): growth of human tumour cells (NCI), 48 h

Values joined by “and” are separate entries in the source; they are usually repeats but may differ in a detail not shown here. Identical values can stand only once.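 The compound was tested at five concentrations on cells cultured in 96-well plates, with a 48-hour exposure period. GI50 = concentration required for 50% inhibition of growth. TGI marks complete inhibition of growth.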

`COC1=CC(=O)c2c(cc3c(c2O)-c2c(OC)cc4cc5c(c(O)c4c2OC(=O)CC(C)(O)C3)C(=O)CC(C)(O)C5)C1=O` (configuration not stated): the TGI in the assay with 786-0 renal amounted to 7.72 µM; with A498 renal, 4.42 µM; with HOP-62 NSCLC, 2.76 µM; in the assay on M14 melanoma, 2.66 µM; in the assay on MALME-3M melanoma it was 4.04 µM; in the assay with MOLT-4 leukemia, 6.67 µM. In addition, the TGI stood at 4.27 µM in the assay on OVCAR-5 ovarian, 5.85 µM in the assay with RPMI-8226 leukemia, 3.48 µM in the assay with SF-295 CNS and 7.47 µM in the assay with SK-OV-3 ovarian.

On to `C=C1C(=O)OC2CC1C(OC(C)=O)C/C(C)=C/CC/C(C)=C\CCC2(C)O` (configuration not stated), for which the TGI was 10.5 µM and 19.9 µM in the assay on 786-0 renal; 17.1 µM and 21.4 µM with A498 renal; 35.4 µM and 31.7 µM with HOP-62 NSCLC; > 36.9 µM and 29.6 µM with M14 melanoma; 15 µM in the assay on MALME-3M melanoma; 6.23 µM and 7.81 µM in the assay with MOLT-4 leukemia. For the same molecule, the TGI in the assay on OVCAR-5 ovarian was 46.3 µM and 30 µM; with RPMI-8226 leukemia, 7.9 µM and 7.55 µM; in the assay with SF-295 CNS, 46.8 µM and 37 µM; in the assay with SK-OV-3 ovarian it was 61.7 µM and 46.6 µM.

With `OCCCc1cnco1`, the TGI in the assay with 786-0 renal, with A498 renal, in the assay with HOP-62 NSCLC, with M14 melanoma, with MALME-3M melanoma and with MOLT-4 leukemia was above 100 µM throughout. The TGI in the assay on OVCAR-5 ovarian, with RPMI-8226 leukemia, in the assay with SF-295 CNS and in the assay on SK-OV-3 ovarian was above 100 µM throughout.

As to `O=c1[nH]c(F)nc2c1ncn2C1OC(CO)C(O)C1O` (configuration not stated), the GI50 in the assay with 786-0 renal, in the assay with A498 renal, in the assay with HOP-62 NSCLC, in the assay on M14 melanoma, in the assay on MALME-3M melanoma and with MOLT-4 leukemia was above 100 µM in each case. Also, the GI50 in the assay with OVCAR-5 ovarian, in the assay with RPMI-8226 leukemia, in the assay with SF-295 CNS and in the assay with SK-OV-3 ovarian was above 100 µM in each case. The TGI in the assay with 786-0 renal, with A498 renal, in the assay on HOP-62 NSCLC, with M14 melanoma, in the assay on MALME-3M melanoma and in the assay on MOLT-4 leukemia was above 100 µM in each case. In addition, the TGI in the assay with OVCAR-5 ovarian, in the assay on RPMI-8226 leukemia, in the assay with SF-295 CNS and in the assay on SK-OV-3 ovarian was above 100 µM throughout.

For `Cc1cc2c(cc1C)[n+](=O)c(C(=O)CC(=O)C(=O)Nc1ccccc1C(C)C)c(C)n2[O-]`, the TGI with 786-0 renal, in the assay on A498 renal, in the assay with HOP-62 NSCLC, in the assay with M14 melanoma, in the assay with MALME-3M melanoma and with MOLT-4 leukemia was above 100 µM throughout. The TGI in the assay with OVCAR-5 ovarian, in the assay on RPMI-8226 leukemia, in the assay with SF-295 CNS and with SK-OV-3 ovarian was above 100 µM throughout.

In the case of `Cn1c(=O)c2[nH]c(CCCc3ccc([N+](=O)[O-])cc3)nc2n(C)c1=O`, the TGI in the assay with 786-0 renal, in the assay with A498 renal, with HOP-62 NSCLC, with M14 melanoma, in the assay on MALME-3M melanoma and with MOLT-4 leukemia was above 100 µM each time. Also, the TGI in the assay with OVCAR-5 ovarian, with RPMI-8226 leukemia, with SF-295 CNS and in the assay on SK-OV-3 ovarian was above 100 µM each time.

For the molecule `NCCCNc1nc2ccc(Cl)cc2c2c(=O)c3cc(F)ccc3sc12`, the GI50 is 1.92 µM in the assay with 786-0 renal; 6.1 µM in the assay on A498 renal; 6.47 µM in the assay on HOP-62 NSCLC; 3.6 µM with M14 melanoma; 6.91 µM in the assay on MALME-3M melanoma; 1.87 µM with MOLT-4 leukemia. Moreover, the GI50 was 3.38 µM with OVCAR-5 ovarian, 2.77 µM in the assay with RPMI-8226 leukemia and 12 µM with SF-295 CNS. The TGI in the assay on 786-0 renal came to 5.88 µM; with A498 renal, 21 µM; in the assay on HOP-62 NSCLC, 28.5 µM; in the assay with M14 melanoma, 14.2 µM; in the assay with MALME-3M melanoma, 23.2 µM; in the assay on MOLT-4 leukemia, 3.95 µM. Moreover, the TGI in the assay on OVCAR-5 ovarian was 14.3 µM; with RPMI-8226 leukemia, 9.79 µM; in the assay with SF-295 CNS it was 26.5 µM.

Regarding `COC(=O)[C@@H](C)C[C@H](Cc1ccccc1)NC(=O)c1csc([C@@H](C[C@H](C(C)C)N(C)C(=O)C2(NC(=O)[C@H]3CCCCN3C)CCC2)OC(C)=O)n1`, the TGI in the assay with 786-0 renal is above 25 µM; with A498 renal, 0.0874 µM; with HOP-62 NSCLC it was above 25 µM; in the assay with M14 melanoma it was 0.0564 µM and 0.0107 µM; in the assay with MALME-3M melanoma it was above 25 µM; in the assay with MOLT-4 leukemia, above 25 µM. In addition, the TGI with OVCAR-5 ovarian, with RPMI-8226 leukemia, with SF-295 CNS and in the assay on SK-OV-3 ovarian was above 25 µM throughout. Further, the GI50 with A498 renal is 0.0164 µM and 0.00548 µM; in the assay on HOP-62 NSCLC it was 0.0367 µM and 0.00706 µM; in the assay with M14 melanoma, 0.00413 µM and 0.0025 µM; in the assay on MALME-3M melanoma, 0.0025 µM; in the assay on MOLT-4 leukemia, 0.0107 µM and 0.00714 µM; in the assay with OVCAR-5 ovarian, 0.0786 µM and 0.0099 µM. Further, the GI50 in the assay with RPMI-8226 leukemia is 0.00259 µM and 0.0025 µM; in the assay on SF-295 CNS it was 0.0169 µM and 0.00404 µM; in the assay with SK-OV-3 ovarian, 0.0156 µM and 0.00504 µM.

As to `O=C1NC(=O)C(c2ccccc2)=C1Nc1ccccc1`, the GI50 in the assay with 786-0 renal is above 25 µM; in the assay with A498 renal it was above 22.1 µM; with HOP-62 NSCLC, above 25 µM; in the assay with M14 melanoma it was above 25 µM; in the assay with MALME-3M melanoma, above 25 µM; in the assay with MOLT-4 leukemia, above 25 µM. In addition, the GI50 in the assay with OVCAR-5 ovarian, in the assay with RPMI-8226 leukemia, with SF-295 CNS and in the assay with SK-OV-3 ovarian was above 25 µM each time. In addition, the TGI with 786-0 renal, in the assay with A498 renal, in the assay with HOP-62 NSCLC, in the assay on M14 melanoma, in the assay with MALME-3M melanoma and in the assay with MOLT-4 leukemia was above 25 µM in each case. The TGI with OVCAR-5 ovarian, in the assay on RPMI-8226 leukemia, in the assay with SF-295 CNS and in the assay with SK-OV-3 ovarian was above 25 µM in each case.

For `C=C(CN1CCN(c2ccccc2C(F)(F)F)CC1)c1ccc(C(=O)Nc2ccccc2N)cc1`, the GI50 was 2.36 µM in the assay on 786-0 renal; 5.36 µM in the assay on A498 renal; 4.76 µM in the assay with HOP-62 NSCLC; 4.47 µM with M14 melanoma; 4.17 µM in the assay on MALME-3M melanoma; 0.125 µM in the assay on MOLT-4 leukemia. The GI50 was 11.8 µM in the assay on OVCAR-5 ovarian, 0.164 µM in the assay with RPMI-8226 leukemia, 5.98 µM in the assay with SF-295 CNS and 11 µM in the assay with SK-OV-3 ovarian. Besides, the TGI with 786-0 renal was 15.1 µM; with A498 renal it was 31.8 µM; in the assay with HOP-62 NSCLC it was above 44.4 µM; in the assay with M14 melanoma, above 100 µM; in the assay with MALME-3M melanoma it was above 64.1 µM; in the assay on MOLT-4 leukemia, 2.55 µM. In addition, the TGI in the assay on OVCAR-5 ovarian was above 100 µM; with RPMI-8226 leukemia it was 1.01 µM; with SF-295 CNS it was 42.9 µM; in the assay with SK-OV-3 ovarian, above 100 µM.
